Assay results: patent US9586951B2 (FUJIFILM Corporation, priority 2013, dated 2017)

Columns and labels:
[1] = molecular target: T1, ATM (Homo sapiens, UniProt Q13315); test: ATM inhibition test (phosphorylation of Chk2 generated by ionizing radiation, AlphaScreen SureFire); type: cell-based; conditions: phosphorylated Chk2 in NCI-H460 cells, ionizing radiation 8Gy, 1 hour after test compound treatment; read-out: ATM inhibitory activity
T1 construct: detecting phosphorylation of Chk2 in a human non-small cell lung cancer cell line NCI-H460 (ATCC company); host or cells: NCI-H460 human non-small cell lung cancer cells
Summary of the method: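 In NCI-H460 cells, radiation-triggered Chk2 phosphorylation (8Gy, 1 h) is detected by AlphaScreen SureFire following 1 h compound exposure.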

[2] = system: human non-small cell lung cancer cell line NCI-H460; test: Cell proliferation inhibition test by sensitivity-enhancing to ionizing radiation (Cell Titer Glo); type: cell-based; conditions: concentration in which SER became 2, NCI-H460 cells, ionizing radiation 2 Gy, cultured 120 hour
Summary of the method: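 Cells seeded at 2×10^3 cells/mL in RPMI-1640 with 10% FBS; after 24 h, compound added (0.1% DMSO), and 30 min later half the plates irradiated at 2 Gy. After 120 hour at 37° C, viability by Cell Titer Glo luminescence; SER2 is the concentration giving SER of 2 by sigmoidal fit.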

T1 sequence (Q13315 whole entry): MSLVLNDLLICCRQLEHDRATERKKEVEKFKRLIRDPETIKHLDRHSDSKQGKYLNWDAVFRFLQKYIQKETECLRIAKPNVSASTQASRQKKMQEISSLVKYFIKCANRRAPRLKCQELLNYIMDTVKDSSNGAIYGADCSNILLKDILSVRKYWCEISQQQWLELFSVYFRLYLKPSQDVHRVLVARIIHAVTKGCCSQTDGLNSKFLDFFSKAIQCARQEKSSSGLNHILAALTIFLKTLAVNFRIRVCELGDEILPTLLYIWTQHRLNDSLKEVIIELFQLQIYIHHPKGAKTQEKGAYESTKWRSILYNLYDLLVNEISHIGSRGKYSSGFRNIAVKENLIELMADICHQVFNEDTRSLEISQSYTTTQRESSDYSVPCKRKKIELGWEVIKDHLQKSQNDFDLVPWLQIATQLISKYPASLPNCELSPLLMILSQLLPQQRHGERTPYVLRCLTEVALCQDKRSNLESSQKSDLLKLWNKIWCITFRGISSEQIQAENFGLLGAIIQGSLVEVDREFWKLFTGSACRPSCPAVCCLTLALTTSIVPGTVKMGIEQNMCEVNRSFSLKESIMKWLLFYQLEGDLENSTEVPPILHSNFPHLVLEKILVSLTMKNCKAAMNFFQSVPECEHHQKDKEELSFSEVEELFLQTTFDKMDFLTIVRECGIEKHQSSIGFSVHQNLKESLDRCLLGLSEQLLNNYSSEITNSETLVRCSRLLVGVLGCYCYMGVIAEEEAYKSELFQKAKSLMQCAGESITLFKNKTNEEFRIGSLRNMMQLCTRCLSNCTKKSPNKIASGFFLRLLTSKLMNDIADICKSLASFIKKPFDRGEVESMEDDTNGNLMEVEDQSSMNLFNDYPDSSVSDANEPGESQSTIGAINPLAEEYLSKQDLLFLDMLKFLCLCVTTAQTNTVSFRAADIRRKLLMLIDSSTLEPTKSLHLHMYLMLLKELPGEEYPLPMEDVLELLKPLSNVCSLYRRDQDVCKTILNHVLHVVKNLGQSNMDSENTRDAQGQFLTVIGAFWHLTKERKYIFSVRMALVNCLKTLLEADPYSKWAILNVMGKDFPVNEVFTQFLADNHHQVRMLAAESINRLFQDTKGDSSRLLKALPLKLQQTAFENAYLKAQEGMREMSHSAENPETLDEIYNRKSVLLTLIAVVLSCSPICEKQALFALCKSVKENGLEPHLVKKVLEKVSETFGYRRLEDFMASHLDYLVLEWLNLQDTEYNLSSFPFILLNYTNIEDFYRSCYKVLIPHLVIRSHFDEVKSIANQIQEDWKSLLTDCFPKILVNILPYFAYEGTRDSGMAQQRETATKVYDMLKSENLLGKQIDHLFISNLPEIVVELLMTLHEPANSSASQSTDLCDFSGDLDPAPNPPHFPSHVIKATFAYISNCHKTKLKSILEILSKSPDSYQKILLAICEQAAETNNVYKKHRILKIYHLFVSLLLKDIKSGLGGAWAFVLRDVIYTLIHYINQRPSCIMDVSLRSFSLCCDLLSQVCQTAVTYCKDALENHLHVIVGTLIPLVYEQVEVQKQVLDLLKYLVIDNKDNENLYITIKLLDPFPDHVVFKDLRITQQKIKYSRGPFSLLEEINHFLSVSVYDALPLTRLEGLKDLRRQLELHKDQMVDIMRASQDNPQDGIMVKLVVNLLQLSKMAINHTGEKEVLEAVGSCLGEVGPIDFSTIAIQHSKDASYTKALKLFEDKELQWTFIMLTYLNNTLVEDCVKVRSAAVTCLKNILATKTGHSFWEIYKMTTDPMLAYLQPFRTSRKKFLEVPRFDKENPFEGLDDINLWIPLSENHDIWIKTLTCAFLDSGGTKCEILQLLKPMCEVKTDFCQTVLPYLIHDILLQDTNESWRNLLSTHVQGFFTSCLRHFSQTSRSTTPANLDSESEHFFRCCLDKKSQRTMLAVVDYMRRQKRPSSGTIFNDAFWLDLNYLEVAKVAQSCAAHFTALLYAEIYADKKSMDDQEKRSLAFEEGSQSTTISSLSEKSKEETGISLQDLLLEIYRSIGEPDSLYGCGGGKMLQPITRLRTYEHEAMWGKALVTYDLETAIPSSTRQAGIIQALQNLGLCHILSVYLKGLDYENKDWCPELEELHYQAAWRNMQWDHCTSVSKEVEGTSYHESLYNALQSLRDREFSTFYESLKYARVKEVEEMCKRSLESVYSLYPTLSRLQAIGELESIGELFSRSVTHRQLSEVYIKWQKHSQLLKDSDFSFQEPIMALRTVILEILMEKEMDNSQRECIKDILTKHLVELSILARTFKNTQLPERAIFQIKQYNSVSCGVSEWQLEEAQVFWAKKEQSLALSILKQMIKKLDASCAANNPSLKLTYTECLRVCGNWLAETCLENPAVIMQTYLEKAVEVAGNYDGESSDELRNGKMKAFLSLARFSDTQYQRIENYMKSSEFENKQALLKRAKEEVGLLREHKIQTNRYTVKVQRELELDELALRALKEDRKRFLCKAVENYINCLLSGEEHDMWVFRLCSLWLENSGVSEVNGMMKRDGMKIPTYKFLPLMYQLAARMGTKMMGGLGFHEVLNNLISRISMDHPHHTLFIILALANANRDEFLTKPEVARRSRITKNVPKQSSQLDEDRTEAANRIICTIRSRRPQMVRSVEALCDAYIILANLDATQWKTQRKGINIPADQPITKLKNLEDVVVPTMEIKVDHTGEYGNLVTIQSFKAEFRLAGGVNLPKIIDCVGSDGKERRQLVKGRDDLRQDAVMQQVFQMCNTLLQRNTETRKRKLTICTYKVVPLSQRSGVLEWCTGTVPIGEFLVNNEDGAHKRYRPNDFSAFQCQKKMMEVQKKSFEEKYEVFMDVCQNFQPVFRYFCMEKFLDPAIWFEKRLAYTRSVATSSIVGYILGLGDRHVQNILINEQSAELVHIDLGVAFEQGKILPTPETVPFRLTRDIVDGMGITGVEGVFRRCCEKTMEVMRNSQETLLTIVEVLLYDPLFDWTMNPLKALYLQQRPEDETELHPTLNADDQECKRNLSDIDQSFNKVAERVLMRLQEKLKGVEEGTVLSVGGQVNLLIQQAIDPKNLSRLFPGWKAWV

Row | IC50 [1] | Compound | SER2 (concentration at which the radiation sensitivity-enhancement ratio reaches 2) ([2]; Homo sapiens, NCI-H460, 120 h) | SER2 (concentration at which the radiation sensitivity-enhancement ratio reaches 2) ([2]; Homo sapiens) | SER2 (concentration at which the radiation sensitivity-enhancement ratio reaches 2) [2]
1 | < 100 nM | CCCN1CCC(Nc2ccc3c(c2)Cc2cccc(-c4cc(N5CCOCC5)cc(=O)[nH]4)c2O3)CC1 [Example 2-28-32, 4-Morpholino-6-(7-((1-propylpiperidin-4-yl)amino)-9H-xanthen-4-yl) pyridin-2(1H)-one] | 500 to 2000 nM |  | 
2 | < 100 nM | Cc1ccc(C(Nc2ccc3c(c2)Sc2cccc(-c4cc(N5CCOCC5)cc(=O)[nH]4)c2S3)C2CN(C)CCO2)nc1 (single isomer, unassigned) [Example 1-52-1, 6-(7-(((4-methylmorpholin-2-yl)(5-methylpyridin-2-yl)methyl)amino)thianthren-1-yl)-4-morpholinopyridin-2(1H)-one] | < 100 nM |  | 
3 | < 100 nM | CN(C)c1cnc(CNc2ccc3c(c2)Sc2cccc(-c4cc(N5CCOCC5)cc(=O)[nH]4)c2O3)cn1 [Example 4-4-17, 6-(8-(((5-(Dimethylamino)pyrazin-2-yl)methyl)amino)phenoxathiin-4-yl)-4-morpholino pyridin-2(1H)-one] | 100 to 500 nM |  | 
4 | < 100 nM | Cc1cnc(C(C)Nc2ccc3c(c2)Sc2cccc(-c4cc(N5CCOCC5)cc(=O)[nH]4)c2S3)nc1 (single isomer, unassigned) [Example 1-12-139-1, 6-(7-((1-(5-methylpyrimidin-2-yl)ethyl)amino)thianthren-1-yl)-4-morpholinopyridin-2(1H)-one] | < 100 nM |  | 
5 | < 100 nM | Cc1cccc(C(Nc2ccc3c(c2)Sc2cccc(-c4cc(N5CCOCC5)cc(=O)[nH]4)c2S3)C2CCCN(C)C2)n1 (single isomer, unassigned) [Example 1-22-4, 6-(7-(((1-Methylpiperidin-3-yl)(6-methylpyridin-2-yl)methyl)amino)thianthren-1-yl)-4-morpholino pyridin-2 (1H)-one] | < 100 nM |  | 
6 | < 100 nM | Cc1ccnc(C(CO)Nc2ccc3c(c2)Sc2cccc(-c4cc(N5CCOCC5)cc(=O)[nH]4)c2S3)c1 (stereo not shown) [Example 1-12-65, 6-(7-((2-Hydroxy-1-(4-methylpyridin-2-yl)ethyl)amino)thianthren-1-yl)-4-morpholino pyridin-2(1H)-one] | 100 to 500 nM |  | 
7 | < 100 nM | COc1ccnc(CNc2ccc3c(c2)Sc2cccc(-c4cc(N5CCOCC5)cc(=O)[nH]4)c2S3)c1 [Example 1-12-4] | 100 to 500 nM |  | 
8 | < 100 nM | Cc1cccc(C(Nc2ccc3c(c2)Sc2cccc(-c4cc(N5CCOCC5)cc(=O)[nH]4)c2S3)C2CCN(C)C2)n1 (single isomer, unassigned) [Example 1-22-7, 6-(7-(((6-Methylpyridin-2-yl)(1-methylpyrrolidin-3-yl)methyl)amino)thianthren-1-yl)-4-morpholino pyridin-2 (1H)-one] |  |  | < 100 nM
9 | < 100 nM | O=c1cc(N2CCOCC2)cc(-c2cccc3c2Sc2ccc(NCCN4CC5(COC5)C4)cc2S3)[nH]1 [Example 1-16-3, 6-(7-((2-(2-Oxa-6-azaspiro[3.3]heptan-6-yl)ethyl)amino)thianthren-1-yl)-4-morpholinopyridin-2(1H)-one] | 100 to 500 nM |  | 
10 | < 100 nM | CC(Nc1ccc2c(c1)Cc1cccc(-c3cc(N4CCOCC4)cc(=O)[nH]3)c1O2)c1cc(Cl)ccn1 (single isomer, unassigned) [Example 2-14-89-2, 6-(7-((1-(4-chloropyridin-2-yl)ethyl)amino)-9H-xanthen-4-yl)-4-morpholinopyridin-2(1H)-one] | < 100 nM |  | 
11 | < 100 nM | Cc1cccc(C(C)Nc2ccc3c(c2)Sc2cccc(-c4cc(N5CCOCC5)cc(=O)[nH]4)c2O3)n1 (stereo not shown) [Example 4-4-30, 6-(8-((1-(6-Methylpyridin-2-yl)ethyl)amino)phenoxathiin-4-yl)-4-morpholino pyridin-2(1H)-one] | 100 to 500 nM |  | 
12 | < 100 nM | O=c1cc(N2CCOCC2)cc(-c2cccc3c2Oc2ccc(NCc4cncc(-n5cccc5)c4)cc2S3)[nH]1 [Example 4-4-8, 6-(8-(((5-(1H-Pyrrol-1-yl)pyridin-3-yl)methyl)amino)phenoxathiin-4-yl)-4-morpholino pyridin-2(1H)-one] | 100 to 500 nM |  | 
13 | < 100 nM | O=c1cc(N2CCOCC2)cc(-c2cccc3c2Oc2ccc(NCc4cncc(Cl)c4)cc2C3)[nH]1 [Example 2-2-12, 6-(7-(((5-Chloropyridin-3-yl)methyl)amino)-9H-xanthen-4-yl)-4-morpholino pyridin-2 (1H)-one] | 100 to 500 nM |  | 
14 | < 100 nM | Cc1ccc(C(CCC2OCCCO2)Nc2ccc3c(c2)Sc2cccc(-c4cc(N5CCOCC5)cc(=O)[nH]4)c2S3)nc1 (stereo not shown) [Example 1-12-131, 6-(7-((3-(1,3-Dioxan-2-yl)-1-(5-methylpyridin-2-yl)propyl)amino)thianthren-1-yl)-4-morpholino pyridin-2 (1H)-one] | 100 to 500 nM |  | 
15 | < 100 nM | Cc1cnc(C(CCN2CCOCC2)Nc2ccc3c(c2)Sc2cccc(-c4cc(N5CCOCC5)cc(=O)[nH]4)c2S3)cn1 (stereo not shown) [Example 1-50-1, 6-(7-((1-(5-methylpyrazin-2-yl)-3-morpholinopropyl)amino)thianthren-1-yl)-4-morpholinopyridin-2(1H)-one] | < 100 nM |  | 
16 | < 100 nM | CC(Nc1ccc2c(c1)Cc1cccc(-c3cc(N4CCOCC4)cc(=O)[nH]3)c1O2)c1cc(Cl)ccn1 (stereo not shown) [Example 2-14-23, 6-(7-((1-(4-Chloropyridin-2-yl)ethyl)amino)-9H-xanthen-4-yl)-4-morpholino pyridin-2(1H)-one] | 100 to 500 nM |  | 
17 | < 100 nM | COC[C@H](CN1CCOC[C@@H]1C)Nc1ccc2c(c1)Sc1cccc(-c3cc(N4CCOCC4)cc(=O)[nH]3)c1S2 [Example 1-46-5, 6-(7-(((S)-1-Methoxy-3-((S)-3-methylmorpholino)propan-2-yl)amino)thianthren-1-yl)-4-morpholino pyridin-2(1H)-one] | 100 to 500 nM |  | 
18 | < 100 nM | CN(C)c1cnc(CNc2ccc3c(c2)Cc2cccc(-c4cc(N5CCOCC5)cc(=O)[nH]4)c2O3)cn1 [Example 2-2-37] | 500 to 2000 nM |  | 
19 | < 100 nM | Cc1ccc(CNc2ccc3c(c2)Sc2cccc(-c4cc(N5CCOCC5)cc(=O)[nH]4)c2O3)cn1 [Example 4-8-23, 6-(8-(((6-Methylpyridin-3-yl)methyl)amino)phenoxathiin-4-yl)-4-morpholino pyridin-2(1H)-one] | 100 to 500 nM |  | 
20 | < 100 nM | O=c1cc(N2CCOCC2)cc(-c2cccc3c2Oc2ccc(NCc4cnc5ccccc5c4)cc2S3)[nH]1 [Example 4-4-15, 4-Morpholino-6-(8-((quinolin-3-ylmethyl)amino)phenoxathiin-4-yl) pyridin-2(1H)-one] | 100 to 500 nM |  | 
21 | < 100 nM | Cc1ccc(CNc2ccc3c(c2)Sc2cccc(-c4cc(N5CCOCC5)cc(=O)[nH]4)c2O3)nc1 [Example 4-8-13, 6-(8-(((5-Methylpyridin-2-yl)methyl)amino)phenoxathiin-4-yl)-4-morpholino pyridin-2(1H)-one] | 100 to 500 nM |  | 
22 | < 100 nM | CCC(Nc1ccc2c(c1)Cc1cccc(-c3cc(N4CCOCC4)cc(=O)[nH]3)c1O2)c1cncc(OC)c1 (stereo not shown) [Example 2-14-16, 6-(7-((1-(5-Methoxypyridin-3-yl)propyl)amino)-9H-xanthen-4-yl)-4-morpholino pyridin-2 (1H)-one] | < 100 nM |  | 
23 | < 100 nM | COc1cccc(C(CO)Nc2ccc3c(c2)Sc2cccc(-c4cc(N5CCOCC5)cc(=O)[nH]4)c2S3)n1 (stereo not shown) [Example 1-12-132, 6-(7-((2-Hydroxy-1-(6-methoxypyridin-2-yl)ethyl)amino)thianthren-1-yl)-4-morpholino pyridin-2(1H)-one] | 100 to 500 nM |  | 
24 | < 100 nM | CNCC(Nc1ccc2c(c1)Sc1cccc(-c3cc(N4CCOCC4)cc(=O)[nH]3)c1S2)c1cccc(C)n1 (stereo not shown) [Example 1-19-1, 6-(7-((2-(Methylamino)-1-(6-methylpyridin-2-yl)ethyl)amino)thianthren-1-yl)-4-morpholinopyridin-2(1H)-one] | 100 to 500 nM |  | 

Row | Compound | IC50 [1] | SER2 (concentration at which the radiation sensitivity-enhancement ratio reaches 2) ([2]; Homo sapiens, NCI-H460, 120 h) | SER2 (concentration at which the radiation sensitivity-enhancement ratio reaches 2) ([2]; Homo sapiens) | SER2 (concentration at which the radiation sensitivity-enhancement ratio reaches 2) [2]
25 | O=c1cc(N2CCOCC2)cc(-c2cccc3c2Sc2ccc(NC(CF)CN4CCOCC4)cc2S3)[nH]1 (racemic) [Example 1-41-1-1, 6-(7-((1-Fluoro-3-morpholinopropan-2-yl)amino)thianthren-1-yl)-4-morpholinopyridin-2(1H)-one] | < 100 nM |  | < 100 nM | 
26 | O=c1cc(N2CCOCC2)cc(-c2cccc3c2Sc2ccc(NCCN4C5CCC4COC5)cc2S3)[nH]1 [Example 1-10-5, 6-(7-((2-(3-oxa-8-azabicyclo[3.2.1]octan-8-yl)ethyl)amino)thianthren-1-yl)-4-morpholinopyridin-2(1H)-one] | < 100 nM | 100 to 500 nM |  | 
